Source: patent publication US20250221408A1, “COMPOSITION” (EARTH CORPORATION, priority 2022, published 2025)
Where two headings read alike, the source gives them in different places. Values belong to the compound of their own block, whether it stands above or below them.

What was measured:
[1] = Decomposition stability of single perfume component in sodium chlorite/benzalkonium chloride preparation, GC-MS, Example 5; conditions: for Area change rate (%) / Decomposition stability of additive component: 50° C. for 2 weeks
[2] = Decomposition stability of perfume components in sodium chlorite/benzalkonium chloride preparation, GC-MS, Examples 1 to 4 (perfume mixtures)
[3] = Lewis acidity measurement method (1): reaction rate constant of CoTPP and oxygen in the presence of Lewis acid; format: physicochemical
[4] = perfume component 2 ppm in preparation
[5] = perfume component 3 ppm in preparation
[6] = perfume component 5 ppm in preparation
[7] = perfume component 1 ppm in preparation
[8] = Examples 1 to 4, aged products after 2 weeks of storage, GC-MS
[9] = perfume component 10 ppm in preparation
[10] = perfume component 50 ppm in preparation
[11] = perfume component 6 ppm in preparation
[12] = CoTPP and oxygen under the presence of Lewis acid, MeCN, room temperature

Compound: CC(C)C12CCC(C)(CC1)O2 [1,4-cineole]
- Area change rate (%) [1, 4]: 95%

Compound: OCc1ccccc1 [Benzyl alcohol]
- Area change rate (%) [1, 5]: 84%
- Decomposition stability of additive component [1, 5]: ∘ (70% or more)

Compound: Cc1coc2c1CCC(C)C2 (centres unmarked) [Menthofuran, reference compound]
- Fate of perfume component in aged product (in words) [2, 8]: no peaks were observed

Compound: CC(C)=C1CC[C@@H](C)CC1=O [Pulegone]
- Area change rate (%) [1, 6]: 100%
- Decomposition stability of additive component [1, 6]: ∘ (70% or more)

Compound: CC(C)C12CCC(C)(O)C1C2 (centres unmarked) [Thujanol, reference compound]
- Fate of perfume component in aged product (in words) [2]: no peaks were observed

Compound: CC(C)(C)CC(C)(C)c1ccc(OCCOCC[N+](C)(C)Cc2ccccc2)cc1.[Cl-] [benzetonium chloride, benzethonium chloride]
- kcat [3, 12]: 0.24 M^−2 s^−1

Compound: CCCC[N+](CCCC)(CCCC)CCCC.F[P-](F)(F)(F)(F)F [tetrabutylammonium hexafluorophosphate]
- kcat [3]: >0.1 M^−2 s^−1

Compound: benzalkonium chloride
- kcat [3, 12]: 0.18 M^−2 s^−1

Now from value to compound:

- Area change rate (%) [1, 6]: 98%
- Decomposition stability of additive component [1, 6]: ∘ (70% or more)
Compound: C=C(C)C1CC=C(C)C(=O)C1 (centres unmarked) [Carvone]

- Area change rate (%) ([1]; perfume component 4 ppm in preparation): 91%
Compound: C=C(C)[C@@H]1CC[C@@H](C)C(=O)C1 [Dihydrocarvone]

- Area change rate (%) [1, 4]: 99%
Compound: CC1CCC(C(C)(C)O)CC1 (centres unmarked) [Dihydroterpineol]

- Area change rate (%) [1, 7]: 99%
- Decomposition stability of additive component [1, 7]: ∘ (70% or more)
Compound: CC12CCC(CC1)C(C)(C)O2 [Eucalyptol]

- Area change rate (%) [1, 6]: 97%
Compound: C=CCc1ccc(O)c(OC)c1 [Eugenol]

- Fate of perfume component in aged product (in words) ([1]; Example 5, aged product after 2 weeks at 50° C., GC-MS): remarkably decreased
- Area change rate (%) [1, 6]: 0%
- Fate of perfume component in aged product (in words) [2, 8]: no peaks were observed
Compound: C=CC(C)(O)CCC=C(C)C (centres unmarked) [Linalool, reference compound]

- Area change rate (%) [1, 6]: 100%
- Decomposition stability of additive component [1, 6]: ∘ (70% or more)
- Area change rate (%) [1, 9]: 100%
- Decomposition stability of additive component [1, 9]: ∘ (70% or more)
- Area change rate (%) [1, 10]: 100%
- Decomposition stability of additive component [1, 10]: ∘ (70% or more)
Compound: CC1CCC(C(C)C)C(O)C1 (centres unmarked) [Menthol]

- Area change rate (%) [1, 6]: 75%
- Decomposition stability of additive component [1, 6]: ∘ (70% or more)
- Area change rate (%) [1, 9]: 80%
- Decomposition stability of additive component [1, 9]: ∘ (70% or more)
Compound: CC(C)[C@@H]1CC[C@@H](C)CC1=O [Menthone]

- Area change rate (%) [1, 11]: 89%
- Decomposition stability of additive component [1, 11]: ∘ (70% or more)
Compound: CC1=CC(=O)C(C(C)C)CC1 (centres unmarked) [Piperitone]

- Area change rate (%) [1, 6]: 76%
- Decomposition stability of additive component [1, 6]: ∘ (70% or more)
Compound: Cc1ccc(C(C)C)c(O)c1 [Thymol]

- Fate of perfume component in aged product (in words) [2, 8]: no peaks were observed
Compound: Cc1ccccc1C(C)C [o-cymene, reference compound]
